Test results reported in patent publication US9896436B2, “Histone demethylase inhibitors” (Celgene Quanticel Research, Inc., priority 2014, dated 2018).
pIC50: −log10 of the molar value.

Key:
Assay type in all cases: biochemical
Conditions in all cases: Table 5
[1] = target: JMJD2C (Homo sapiens (Human), UniProt Q9H3R0); experiment: JMJD2C in vitro enzyme inhibition assay (TR-FRET)
Text: (§1) This assay determines the ability of a test compound to inhibit Jarid1B, JMJD2C and JMJD3 demethylase activity. Baculovirus expressed Jarid1B (GenBank Accession #NM-006618, AA 2-751) was purchased from BPS Bioscience (Cat #50121) or custom made by MolecularThroughput. Baculovirus expressed JMJD2C (GenBank Accession #BC143571, AA 2-372) was purchased from BPS Bioscience (Cat#50105). Baculovirus expressed JMJD3 (GenBank Accession #NM-001080424, AA1043-end) was purchased from BPS Bioscience (Cat#50115).
The ability of test compounds to inhibit the activity of JMJD2C was determined in 384-well plate format under the following reaction conditions: 0.3 nM JMJD2C, 300 nM H3K9me3-biotin labeled peptide (Anaspec cat #64360), 2 μM alpha-ketoglutaric acid in assay buffer of 50 mM HEPES, pH7.3, 0.005% Brij35, 0.5 mM TCEP, 0.2 mg/ml BSA, 50 μM sodium L-ascorbate, and 2 μM ammonium iron(II) sulfate. Reaction product was determined quantitatively by TR-FRET after the addition of detection reagent Phycolink Streptavidin-allophycocyanin (Prozyme) and Europium-anti-di-methylated histone H3 lysine 9 (H3K9me2) antibody (PerkinElmer) in the presence of 5 mM EDTA in LANCE detection buffer (PerkinElmer) at a final concentration of 50 nM and 1 nM, respectively. […]

[2] = target: Jarid1B (Homo sapiens (Human), UniProt Q9UGL1); experiment: Jarid1B in vitro enzyme inhibition assay (TR-FRET)
Jarid1B, sequence (Q9UGL1 2-751): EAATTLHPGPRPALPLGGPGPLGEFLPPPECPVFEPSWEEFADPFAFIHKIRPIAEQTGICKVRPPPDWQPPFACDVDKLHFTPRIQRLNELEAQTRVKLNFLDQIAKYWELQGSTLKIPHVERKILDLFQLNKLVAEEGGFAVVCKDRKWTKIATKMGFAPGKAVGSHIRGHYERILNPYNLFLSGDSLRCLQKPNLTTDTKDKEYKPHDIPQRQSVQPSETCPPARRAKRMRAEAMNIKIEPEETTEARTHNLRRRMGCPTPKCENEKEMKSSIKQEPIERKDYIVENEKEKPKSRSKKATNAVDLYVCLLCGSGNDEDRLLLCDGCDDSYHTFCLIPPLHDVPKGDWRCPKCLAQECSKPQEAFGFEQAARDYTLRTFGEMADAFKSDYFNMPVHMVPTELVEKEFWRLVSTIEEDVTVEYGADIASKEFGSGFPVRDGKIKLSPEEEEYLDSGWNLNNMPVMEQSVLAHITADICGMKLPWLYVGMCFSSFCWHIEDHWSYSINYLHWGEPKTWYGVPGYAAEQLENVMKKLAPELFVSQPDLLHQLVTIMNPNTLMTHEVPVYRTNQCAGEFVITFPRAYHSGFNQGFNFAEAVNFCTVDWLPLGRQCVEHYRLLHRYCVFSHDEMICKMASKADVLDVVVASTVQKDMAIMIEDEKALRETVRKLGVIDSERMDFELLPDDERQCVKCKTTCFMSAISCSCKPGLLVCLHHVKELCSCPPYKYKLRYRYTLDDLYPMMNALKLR
Text: as §1
The ability of test compounds to inhibit the activity of Jarid1B was determined in 384-well plate format under the following reaction conditions: 0.8 nM Jarid1B, 300 nM H3K4me3-biotin labeled peptide (Anaspec cat #64357), 2 μM alpha-ketoglutaric acid in assay buffer of 50 mM HEPES, pH7.3, 0.005% Brij35, 0.5 mM TCEP, 0.2 mg/ml BSA, 50 μM sodium L-ascorbate, and 2 μM ammonium iron(II) sulfate. Reaction product was determined quantitatively by TR-FRET after the addition of detection reagent Phycolink Streptavidin-allophycocyanin (Prozyme) and Europium-anti-mono- or di-methylated histone H3 lysine 4 (H3K4me1-2) antibody (PerkinElmer) in the presence of 5 mM EDTA in LANCE detection buffer (PerkinElmer) at a final concentration of 25 nM and 1 nM, respectively. […]

[3] = target: JMJD3 (Homo sapiens, UniProt O15054); experiment: JMJD3 in vitro enzyme inhibition assay (AlphaScreen)
Text: as §1
The ability of test compounds to inhibit the activity of JMJD3 was determined in 384-well plate format under the following reaction conditions: 1 nM JMJD3, 250 nM H3K27me3-biotin labeled peptide (Anaspec cat #64367), 1 μM alpha-ketoglutaric acid in assay buffer of 50 mM HEPES, pH7.3, 0.005% Brij35, 0.5 mM TCEP, 0.2 mg/ml BSA, 50 μM sodium L-ascorbate, 5 μM ammonium iron(II) sulfate. Reaction product is determined quantitatively by AlphaScreen detection after the addition of detection reagents anti-H3K27me1 antibody, 5 μg/ml AlphaScreen® Streptavidin-coated Donor beads, and 5 μg/ml AlphaScreen® Protein A Acceptor beads in 50 mM HEPES, pH7.3, 10 mM NaCl, 0.005% Brij35, 10 mM EDTA, 2 mg/ml BSA. […]

JMJD2C, sequence (Q9H3R0 2-372): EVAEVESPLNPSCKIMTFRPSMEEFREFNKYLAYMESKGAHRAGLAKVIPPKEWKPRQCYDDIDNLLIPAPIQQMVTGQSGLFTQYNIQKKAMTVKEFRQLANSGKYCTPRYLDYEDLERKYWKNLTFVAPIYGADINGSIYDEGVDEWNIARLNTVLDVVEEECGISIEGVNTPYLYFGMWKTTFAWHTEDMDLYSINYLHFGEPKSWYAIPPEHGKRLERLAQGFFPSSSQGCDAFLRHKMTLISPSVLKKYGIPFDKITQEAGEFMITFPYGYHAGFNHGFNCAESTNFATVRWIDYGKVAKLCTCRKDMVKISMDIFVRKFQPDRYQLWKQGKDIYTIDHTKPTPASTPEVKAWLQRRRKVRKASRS

## 2-{1-[(6-fluoro-1,2,3,4- tetrahydronaphthalen-1-yl)methyl]-1H- imidazol-4-yl}-4-[5-(trifluoromethyl)-1H 1,2,3-triazol-4-yl]pyridine [Example 100]
[1]
  pIC50: < 5.00
[2]
  pIC50: ≥ 7.00
[3]
  pIC50: < 5.00
